“And” between values parts separate entries of the source, which are not always exact repeats. Identical values can stand only once. Ends that are not written are not given here.
Legend:
[1] = Size and zeta-potential of CPP/mRNA complexes by DLS; format: physicochemical; details: for Particle Size / PDI / Zeta Potential: CPP/mRNA complex at the N/P ratio of Table 2; for Particle Size / PDI: DLS; for Particle Size / Zeta Potential: Zetasizer Nano ZS; for Particle Size: 50 μg CPP in 1 mL distilled water; for PDI / Zeta Potential: distilled water; for N/P Ratio (lowest N/P ratio to form the nanocomplexes): CPP/mRNA complex, amine groups of peptide to phosphate groups of mRNA
Description: The size and zeta-potential of CPP/mRNA complexes were measured by dynamic light scattering (DLS) using Zetasizer Nano ZS (Malvern Instruments, Malvern, UK); 50 μg of CPPs mixed with an optimized amount of mRNA were diluted in 1 mL of distilled water and then transferred to a cuvette.

CT26.CL25 cells [2] = assay: Cellular uptake of fluorescein-labeled mRNA, flow cytometry; format: cell-based, mouse; details: CT26.CL25, 3 μg (6.8 nM) fluorescein-labeled mCherry mRNA with CPP or Lipofectamine 3000, serum-free media, 3 h, n = 3
Description: For the cellular uptake test, mCherry mRNA was labeled with fluorescein dye using the Label IT nucleic acid labeling kit (MIR 3200) (Mirus Bio, Madison, WI, USA). CT26.CL25 cells plated on a 35 mm glass bottom dish were incubated in 1.5 mL of serum-free media for 2 h. […] After treatment, CT26.CL25 cells were collected with PBS and FITC-positive cells were measured by a CytoFLEX flow cytometer (Beckman Coulter, Palo Alto, CA, USA) using FlowJo v10 software.

CT26.CL25 cells [3] = assay: mCherry protein expression, fluorescence microscopy; format: cell-based, mouse; details: CT26.CL25, CPP/mCherry mRNA 6.8 nM, 24 h after treatment, n = 3
Description: (§1) To measure expression efficiency, cells seeded on a 35 mm glass bottom dish were incubated in 1.5 mL of serum-free media for 2 h. After incubation, mCherry mRNA with Lipofectamine 3000 or CPPs were treated for 3 h, washed, and incubated in complete medium for an additional 21 h. The expression of mCherry protein was visualized with a fluorescence microscope (EVOS M7000, ThermoFisher). The expression efficiency was calculated by counting the number of cells expressing fluorescence in the total number of cells. For quantification of expression efficiency, flow cytometry analyses were examined after 24 h treatment with CPP/EGFP mRNA. CT26.CL25 cells were collected with PBS and EGFP-expressing cells were measured by a CytoFLEX flow cytometer (Beckman Coulter) using FlowJo v10 software.

mCherry mRNA = assay: Gel shift assay, complexation capacity of CPP with mRNA; format: physicochemical; details: 350 ng mCherry mRNA, n = 3
Description: The mRNA was diluted in RNase-free water at 100 ng/μL and incubated with CPPs (1 μg/μL in RNase-free water) at room temperature (RT) for 1 h at 200 rpm. For in vitro studies, CPP/mRNA complexes were diluted with 1× PBS by adding 10× PBS after complexation. To visualize the complexation of mRNA and CPP, 350 ng of mCherry mRNA was mixed with increasing amounts of CPP and a gel shift assay was performed using a 1% agarose gel. Complexation capacity was measured based on mRNA band intensities by Image J. Complexation capacity (%) = 100 − ((Band intensity of mRNA)/(Band intensity of initial mRNA) × 100))

CT26.CL25 cells [4] = assay: EGFP expression, flow cytometry; format: cell-based, mouse; details: CT26.CL25, EGFP mRNA 6.8 nM, 24 h, right plot of Figure 6B (amphipathic CPPs)
Description: as §1

Substance | Particle Size [1] | PDI [1] | Zeta Potential [1] | N/P Ratio (lowest N/P ratio to form the nanocomplexes) [1] | FITC-positive cells (cellular uptake) (CT26.CL25 cells [2]) | mCherry-positive cells (CT26.CL25 cells [3]) | amount of CPP at which complete complexes formed (mCherry mRNA) | EGFP-expressing cells (CT26.CL25 cells [4])
VSRRRRRRGGRRRR [LMWP, low molecular weight protamine, cationic cell-penetrating peptide, synthesized by Peptron] | 129.5 (±0.3) nm | 0.22 | +22.5 (±0.0) mV | 1.9 | 24.1% |  |  | 
Penetratin |  |  |  |  | 28.7% | incapable of protein expression |  | 
WEARLARALARALARHLARALARALRACEA [amphipathic cell-penetrating peptide, synthesized by Peptron] | 174.6 (±3.7) nm | 0.23 | +20.2 (±1.7) mV | 9.7 | 99.9% and > 85% | 28.9% | 1.0 nmol | 29.5%
Stearyl-RRRRRRRR [STR-Arg8, Stearyl-poly-Arginine8, amphipathic CPP, stearyl moiety introduced into Arg8] | 156.8 (±4.7) nm | 0.28 | +28.6 (±0.3) mV | 7.8 | 87.3% and > 85% | 4.9% |  | 14.6%

— paper PMC9227323, “The Potential of Cell-Penetrating Peptides for mRNA Delivery to Cancer Cells” (Pharmaceutics, 2022)
